Some results are limits rather than exact numbers.

The results in this text go back to patent US8063077B2, “Factor Xa inhibitors” (Millennium Pharmaceuticals, Inc., priority 2006, dated 2011).

The assay deals with T1, human plasma protein factor Xa (Homo sapiens, UniProt P00742).
T1 construct: The human plasma protein factor Xa was purchased from Haematologic Technologies; purchased Haematologic Technologies (Essex Junction, Vt.); host or cells: human plasma
T1 sequence (P00742 235-488 limits assumed): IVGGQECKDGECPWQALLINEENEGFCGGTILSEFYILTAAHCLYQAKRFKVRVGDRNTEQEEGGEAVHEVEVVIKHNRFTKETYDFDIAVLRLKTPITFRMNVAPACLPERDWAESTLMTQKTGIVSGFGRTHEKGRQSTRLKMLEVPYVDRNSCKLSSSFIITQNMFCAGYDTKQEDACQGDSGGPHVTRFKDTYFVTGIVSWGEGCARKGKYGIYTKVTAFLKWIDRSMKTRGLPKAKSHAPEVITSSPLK
T1 sequence (P00742 41-179 partner limits assumed): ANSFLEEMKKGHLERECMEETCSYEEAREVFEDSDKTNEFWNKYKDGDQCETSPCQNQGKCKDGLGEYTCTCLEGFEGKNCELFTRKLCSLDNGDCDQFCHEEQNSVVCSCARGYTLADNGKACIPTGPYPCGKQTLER
Kind of assay: Factor Xa IC50 determination, cleavage of paranitroanilide substrate S-2765. It counts as biochemical. Particulars: factor Xa 1 nM, S2765 100 μM, Tris buffered saline pH 7.4, 5% DMSO. The text has this: This example illustrates methods for evaluating the compounds of the invention, along with results obtained for such assays. The in vitro and in vivo human Factor Xa activities of the inventive compounds can be determined by various procedures known in the art, such as a test for their ability to inhibit the activity of human plasma Factor Xa. […] The IC50 value is the concentration (in nM) of the compound required to provide 50% inhibition of human Factor Xa proteolytic activity.
An in vitro assay for detecting and measuring inhibition activity against Factor Xa is as follows:
The substrate S-2765 (Z-D-Arg-Gly-Arg-pNA•HCl) was obtained from Diapharma (West Chester, Ohio).
The human plasma protein factor Xa was purchased from Haematologic Technologies (Essex Junction, Vt.).
All assays, which are performed in 96-well microtiter plates, measure proteolytic activity of the enzyme (factor Xa) by following cleavage of a paranitroanilide peptide substrate. The assay buffer used for proteolytic assays was Tris buffered saline (20 mM Tris, 150 mM NaCl, 5 mM CaCl2, 0.1% Bovine serum albumin (BSA), 5% Dimethly Sulfoxide (DMSO) pH 7.4). In a 96-well microtiter plate, inhibitor was serially diluted to give a range of final concentrations from 0.01 nM to 10 μM. Duplicate sets of wells were assayed and control wells without inhibitor were included. Enzyme was added to each well, (factor Xa concentration=1 nM), the plate was shaken for 5 seconds and then incubated for 5 minutes at room temperature. S2765 was added (100 μM final) and the plate was shaken for 5 seconds (final volume in each well was 200 μl). The degree of substrate hydrolysis was measured at 405 nm on a Thermomax plate reader (Molecular Devices, Sunnyvale, Calif.) for 2 minutes. The initial velocities of substrate cleavage (mOD/min), for each range of inhibitor concentrations, were fitted to a four parameter equation using Softmax data analysis software. The parameter C, derived from the resulting curve-fit, corresponded to the concentration for half maximal inhibition (IC50).
One may read the IC50 as the concentration needed to halve the response being measured. A lower IC50 goes with inhibition by little substance. On to `O=C(NCc1cn(-c2ccc(N3CCOCC3=O)cc2)cn1)c1ccc(Cl)s1` [Compound 11, 5-Chloro-N-((1-(4-(3-oxomorpholino)phenyl)-1H-imidazol-4-yl)methyl)thiophene-2-carboxamide], for which the IC50 is not above 100 nM.

As to `Cc1c(CNC(=O)c2ccc(Cl)s2)ncn1-c1ccc(-n2ccccc2=O)cc1` [Compound 63, 5-Chloro-N-((5-methyl-1-(4-(2-oxopyridin-1(2H)-yl)phenyl)-1H-imidazol-4-yl)methyl)thiophene-2-carboxamide], the IC50 was not below 500 nM.

`CC(=O)Nc1ccn(-c2ccc(-n3cnc(CNC(=O)c4ccc(Cl)s4)c3)cc2)c(=O)n1` [Compound 51, N-((1-(4-(4-acetamido-2-oxopyrimidin-1(2H)-yl)phenyl)-1H-imidazol-4-yl)methyl)-5-chlorothiophene-2-carboxamide] displayed an IC50 not above 100 nM.

Take `O=C(NCc1cn(-c2ccc(N3CCCCC3=O)cc2)cn1)c1ccc(Cl)s1` [Compound 52, 5-chloro-N-((1-(4-(2-oxopiperidin-1-yl)phenyl)-1H-imidazol-4-yl)methyl)thiophene-2-carboxamide]: the IC50 is not above 100 nM.

Turning to `O=C(NCc1cn(-c2ccc(-n3ccccc3=O)c(F)c2)cn1)c1ccc(Cl)s1` [Compound 40, 5-chloro-N-((1-(3-fluoro-4-(2-oxopyridin-1(2H)-yl)phenyl)-1H-imidazol-4-yl)methyl)thiophene-2-carboxamide], the IC50 is not above 100 nM.

`O=C(NCc1cn(-c2ccc(N3CCCNC3=O)cc2)cn1)c1ccc(Cl)s1` [Compound 18, 5-Chloro-N-((1-(4-(2-oxo-tetrahydropyrimidin-1(2H)-yl)phenyl)-1H-imidazol-4-yl)methyl)thiophene-2-carboxamide] returned an IC50 not above 100 nM.

On to `O=C(NCc1cn(-c2ccc(-n3ccccc3=O)cc2O)cn1)c1ccc(Cl)s1` [Compound 28, 5-Chloro-N-((1-(2-hydroxy-4-(2-oxopyridin-1(2H)-yl)phenyl)-1H-imidazol-4-yl)methyl)thiophene-2-carboxamide], for which the IC50 was in the range of 100 to 500 nM.

The molecule `O=C(NCc1cn(-c2ccc(-n3ncccc3=O)cc2)cn1)c1ccc(Cl)s1` [Compound 13, 5-Chloro-N-((1-(4-(6-oxopyridazin-1(6H)-yl)phenyl)-1H-imidazol-4-yl)methyl)thiophene-2-carboxamide] returned an IC50 not below 500 nM.

Turning to `CCN1CCN(c2ccc(-n3cnc(CNC(=O)c4ccc(Cl)s4)c3)cc2)C(=O)C1=O` [Compound 60, 5-chloro-N-((1-(4-(4-ethyl-2,3-dioxopiperazin-1-yl)phenyl)-1H-imidazol-4-yl)methyl)thiophene-2-carboxamide], the IC50 was not below 500 nM.

`O=C(NCc1cn(-c2ccc(-n3ccc(O)cc3=O)cc2)cn1)c1ccc(Cl)s1` [Compound 46, 5-chloro-N-((1-(4-(4-hydroxy-2-oxopyridin-1(2H)-yl)phenyl)-1H-imidazol-4-yl)methyl)thiophene-2-carboxamide]: the half-inhibitory concentration (IC50) was 100 to 500 nM.

The molecule `O=C1CN(c2ccc(-n3cnc(CNC(=O)c4ccc(Cl)s4)c3)cc2)C(=O)CN1` [Compound 20, 5-Chloro-N-((1-(4-(2,5-dioxopiperazin-1-yl)phenyl)-1H-imidazol-4-yl)methyl)thiophene-2-carboxamide] displayed an IC50 not below 500 nM.

Consider `O=C(NCc1cn(-c2ccc(-n3ccccc3=O)cc2OCCN2CCCCC2)cn1)c1ccc(Cl)s1` [Compound 53, 5-chloro-N-((1-(4-(2-oxopyridin-1(2H)-yl)-2-(2-(piperidin-1-yl)ethoxy)phenyl)-1H-imidazol-4-yl)methyl)thiophene-2-carboxamide], for which the IC50 was not above 100 nM.

`O=C(NCc1cn(-c2ccc(-n3cccc(O)c3=O)cc2)cn1)c1ccc(Cl)s1` [Compound 42, 5-chloro-N-((1-(4-(3-hydroxy-2-oxopyridin-1(2H)-yl)phenyl)-1H-imidazol-4-yl)methyl)thiophene-2-carboxamide] showed an IC50 not above 100 nM.

`O=C(NCc1cn(-c2ccc(-n3ccncc3=O)cc2)cn1)c1ccc(Cl)s1` [Compound 12, 5-Chloro-N-((1-(4-(2-oxopyrazin-1(2H)-yl)phenyl)-1H-imidazol-4-yl)methyl)thiophene-2-carboxamide] came in with an IC50 not above 100 nM.

Molecule `Nc1nc(=O)n(-c2ccc(-n3cnc(CNC(=O)c4ccc(Cl)s4)c3)cc2)cc1F` [Compound 50, N-((1-(4-(4-amino-5-fluoro-2-oxopyrimidin-1(2H)-yl)phenyl)-1H-imidazol-4-yl)methyl)-5-chlorothiophene-2-carboxamide] displayed an IC50 not above 100 nM.

Molecule `COC(=O)c1cc(-n2ccccc2=O)ccc1-n1cnc(CNC(=O)c2ccc(Cl)s2)c1` [Compound 29, 5-Chloro-N-((1-(2-methoxycarbonyl-4-(2-oxopyridin-1(2H)-yl)phenyl)-1H-imidazol-4-yl)methyl)thiophene-2-carboxamide] gave an IC50 not below 500 nM.

For `Cc1cccc(=O)n1-c1ccc(-n2cnc(CNC(=O)c3ccc(Cl)s3)c2)cc1` [Compound 14, 5-chloro-N-((1-(4-(6-methyl-2-oxopyridin-1(2H)-yl)phenyl)-1H-imidazol-4-yl)methyl)thiophene-2-carboxamide], the IC50 was not above 100 nM.

`CS(=O)(=O)c1nc(CNC(=O)c2ccc(Cl)s2)cn1-c1ccc(-n2cc(F)ccc2=O)cc1` [Compound 65, 5-chloro-N-((1-(4-(5-fluoro-2-oxopyridin-1(2H)-yl)phenyl)-2-(methylsulfonyl)-1H-imidazol-4-yl)methyl)thiophene-2-carboxamide]: the IC50 was not above 100 nM.

`CS(=O)(=O)c1nc(CNC(=O)c2ccc(Cl)s2)cn1-c1ccc(-n2cccc(F)c2=O)cc1` [Compound 67, 5-chloro-N-((1-(4-(3-fluoro-2-oxopyridin-1(2H)-yl)phenyl)-2-(methylsulfonyl)-1H-imidazol-4-yl)methyl)thiophene-2-carboxamide] displayed an IC50 not above 100 nM.

As for `O=C1CN(c2cc(-n3ccccc3=O)ccc2-n2cnc(CNC(=O)c3ccc(Cl)s3)c2)CCN1` [Compound 26, 5-Chloro-N-((1-(2-(3-oxopiperazin-1-yl)-4-(2-oxopyridin-1(2H)-yl)phenyl)-1H-imidazol-4-yl)methyl)thiophene-2-carboxamide], the IC50 is not above 100 nM.

Consider `Cc1cccn(-c2ccc(-n3cnc(CNC(=O)c4ccc(Cl)s4)c3)cc2)c1=O` [Compound 44, 5-chloro-N-((1-(4-(3-methyl-2-oxopyridin-1(2H)-yl)phenyl)-1H-imidazol-4-yl)methyl)thiophene-2-carboxamide], for which the IC50 is not above 100 nM.

Consider `Cc1nc(CNC(=O)c2ccc(Cl)s2)cn1-c1ccc(-n2ccccc2=O)cc1` [Compound 62, 5-Chloro-N-((2-methyl-1-(4-(2-oxopyridin-1(2H)-yl)phenyl)-1H-imidazol-4-yl)methyl)thiophene-2-carboxamide], for which the IC50 is not above 100 nM.

As for `O=C(NCc1cn(-c2ccc(N3CCS(=O)(=O)CC3=O)cc2)cn1)c1ccc(Cl)s1` [Compound 16, 5-Chloro-N-((1-(4-(1,1-dioxo-3-oxothiomorpholino)phenyl)-1H-imidazol-4-yl)methyl)thiophene-2-carboxamide], the IC50 was not below 500 nM.

On to `O=C(NCc1cn(-c2ccc(-n3ccccc3=O)cc2NCCO)cn1)c1ccc(Cl)s1` [Compound 27, 5-Chloro-N-((1-(2-(2-hydroxyethylamino)-4-(2-oxopyridin-1(2H)-yl)phenyl)-1H-imidazol-4-yl)methyl)thiophene-2-carboxamide], for which the IC50 is not above 100 nM.

Consider `C[S+]([O-])c1nc(CNC(=O)c2ccc(Cl)s2)cn1-c1ccc(-n2cccc(F)c2=O)cc1` (centres unmarked) [Compound 66, 5-chloro-N-((1-(4-(3-fluoro-2-oxopyridin-1(2H)-yl)phenyl)-2-(methylsulfinyl)-1H-imidazol-4-yl)methyl)thiophene-2-carboxamide], for which the IC50 was not above 100 nM.

The molecule `COc1ccc(/N=c2\ccccn2-c2ccc(-n3cnc(CNC(=O)c4ccc(Cl)s4)c3)cc2)cc1` [Compound 35, (E)-5-chloro-N-((1-(4-(2-(4-methoxyphenylimino)pyridin-1(2H)-yl)phenyl)-1H-imidazol-4-yl)methyl)thiophene-2-carboxamide] yielded an IC50 not above 100 nM.

Molecule `Cn1c(Cl)ccc1C(=O)NCc1cn(-c2ccc(-n3ccccc3=O)cc2)cn1` [Compound 38, 5-chloro-1-methyl-N-((1-(4-(2-oxopyridin-1(2H)-yl)phenyl)-1H-imidazol-4-yl)methyl)-1H-pyrrole-2-carboxamide] had a half-inhibitory concentration (IC50) not below 500 nM.

On to `O=C(NCc1cn(-c2ccc(-n3ccccc3=O)cc2)cn1)c1ccc2cc[nH]c2c1` [Compound 31, N-((1-(4-(2-oxopyridin-1(2H)-yl)phenyl)-1H-imidazol-4-yl)methyl)-1H-indole-6-carboxamide], for which the IC50 is not below 500 nM.

Turning to `Nc1ccn(-c2ccc(-n3cnc(CNC(=O)c4ccc(Cl)s4)c3)cc2)c(=O)n1` [Compound 48, N-((1-(4-(4-amino-2-oxopyrimidin-1(2H)-yl)phenyl)-1H-imidazol-4-yl)methyl)-5-chlorothiophene-2-carboxamide], the IC50 is not above 100 nM.
